How the values were obtained:
[1] = test system: p53 target genes p21, PUMA and Mdm2 in H1299-tsp53^V135A cells; assay: Induction of p53 target genes by qRT-PCR, H1299-tsp53 cells; assay type: cell-based, human; conditions: peptide 5μg/ml, 18 hours, 37°C
Experimental: Since p53 works primarily as a transcription factor, we tested the ability of lead peptides to induce p53 target gene activation. To that end we used H1299-tsp53^V135A cells, which express temperature sensitive (ts) p53 and allow examination of WT and mutant p53 states in the same cellular background. In the representative experiment shown in Figure 3A, cells were exposed to the indicated peptides (5μg/ml) and then either transferred to 32°C or placed back at 37°C. Cells were harvested 18 hours later, and mRNA was extracted and subjected to qRT-PCR analysis. Expression levels of 3 representative p53 target genes, p21, PUMA and Mdm2, were examined. Values were normalized to non-treated cells at 37°C, and expression at 32°C, where the ts-p53 is in a WT conformation, served as positive control. […] A similar analysis was performed on ES2 ovarian cancer cells, expressing endogenous mp53^S241F, compared to ES2 p53KO cells (Figure 3B).
Figure 3 Peptides binding to p53 and their effect on the expression of p53 target genes A. - Bar graph illustrating the effect of selected peptides on activation of mutp53 by measuring transactivation of p53 target genes as determined by qRT-PCR. H1299 cells stably transfected with mutp53 (ts) A135V were used. The indicated peptides were added directly to the medium at a concentration of 5ug/ml and cells were then either moved to 32°C or returned to 37°C. 18 hours later cells were harvested, extracted for RNA, cDNA was synthesis subjected to qrt time PCR analysis. The expression level of 3 representative p53 target genes, p21, PUMA and Mdm2, were examined. The figure illustrates the relative fold induction of transcription of the cells treated with the selected peptides as compared to non-treated cells. B. - Bar graph illustrating the effect of selected peptides on activation of mutp53 by measuring transactivation of p53 target genes as determined by qRT-PCR. ES2and ES2-p53KO cells were treated with indicated peptides 5ug/ml, for 18 hours. Cells were harvested, and cDNA was subjected to qRT-PCR analysis. Expression of 4 representative p53 target genes, p21, PUMA, Mdm2 and CD95, was examined. The figure illustrates the relative fold induction of transcription in cells treated with the selected peptides compared to non-treated cells. C. - Binding of mutp53 to promoters of representative p53 target genes in live cells, assessed by chromatin immunoprecipitation. BT-549 breast cancer cells endogenously expressing mutant p53^R249S were treated for 5 hours with a mix of 3 pCAPs - 250, 242 and 325. […] DNA cross-linked p53 was immunoprecipitated, and binding to the p53 responsive elements of the PUMA, p21, CD95 and MDM2 gene promoters was quantified by qPCR. […] Results are presented as relative absorbance at 450nm. […]

[2] = test system: SW-480 colon cancer cells; assay: SW480 colon carcinoma xenograft, intratumoral injection; assay type: in vivo, nude mice
Experimental: The lead peptides were evaluated also in a colon carcinoma xenograft model, employing SW480 cells that harbor p53^R273H, P309S. The experiment was conducted on 15 mice, randomly divided into 3 groups: a control group treated with a cocktail of 3 ineffective peptides, a group treated with a cocktail of 3 effective pCAPs (250, 308, 325) and a group treated singly with pCAP-325. Tumors were allowed to reach visible size for 10 days before onset of treatment. […] Figures 6F, 6G show the mean weight and volume of excised tumors.
Figure 6 Effect of lead peptides on tumor progression in vivo; colon cancer xenograft model In vivo effect of the indicated peptides in a mouse xenograft model of SW-480 colon cancer cells. 10^6 cells were injected and tumors were allowed to establish for 10 days. […] D., E. - Box plot of tumor volume and weight, respectively. TEXT PRINTED IN THE PICTURE: (A) Control peptides: SW-480 colon carcinoma cells (p53^273,309): 240% | (B) pCAP mix: SW-480 colon carcinoma cells (p53^273,309): -97% | (C) pCAP-325: SW-480 colon carcinoma cells (p53^273,309): -93.6% DOUBTS OF THE COPYIST ABOUT THIS PICTURE: Panels A-C: no measure is printed with the percentages (240%, -97%, -93.6%); each stands only beside a bracket at the right end of the plot
Mice (6 weeks athymic nude) were injected subcutaneously with 2×10^5-10^6 cells into each […]. All cell lines employed in these experiments stably express a luciferase reporter gene to enable monitoring of tumor growth by live imaging. 4-18 days later, when tumors reached visible size, the mice were randomly divided into several groups: a control group, treated with either a single control peptide or a mix of 2-3 control pCAPs, and groups treated with effective peptides, either a single peptide or a mix of three peptides. Peptides were administered by intratumoral injection of 6-10μg peptide per tumor in 40μl PBS, three times a week. Tumor growth over time was measured by live imaging, using the IVIS2000 system. Exposure time was calibrated to 20 seconds. 16 images were taken over 8 minutes and peak luminescence values were taken for each tumor. Experiments were conducted until tumors reached maximal allowed size of 1cm^3, at which time were sacrificed and tumors extracted, measured and weighed.

[3] = test system: recombinant WTp53 or mutp53R175H; assay: ELISA of binding of WTp53 and mutp53 to plate-conjugated peptides; conditions: peptides conjugated to wells, peptides recruited preferentially WTp53
[4] = Experiment 4, SW-480 p53^R273H,P309S
[5] = Experiment 4, SW-480 p53^R273H,P309S, excised tumors

Substance: IRGRIIR [pCAP-54]
- expression of the p53 target genes, H1299-tsp53 [1]: significant increase

Substance: LRCLLLLIGRVGRRRRRRRR [pCAP-24R, pCAP-24 with poly arginine tail]
- expression of the p53 target genes, H1299-tsp53 [1]: significant increase

Substance: SFILFIRRGRLGRRRRRRRRR [pCAP-60R, pCAP-60 with poly arginine tail]
- expression of the p53 target genes, H1299-tsp53 [1]: significant increase

Substance: WNHHHSTPHPAHRRRRRR [pCAP-97R, pCAP-97 with poly arginine tail]
- expression of the p53 target genes, H1299-tsp53 [1]: significant increase

Substance: myr-RRIRDPRILLLHFD [pCAP-325]
- % of tumors total regression [2, 4]: 20%
- IVIS average ratio to day 0 [2, 4]: 6.4%
- Samples average size [2, 5]: 0.12
- Samples average weight [2, 5]: 0.1
- tumor size decrease ([2]; SW480 xenograft, intratumoral three times a week, mix 2μg of each peptide or pCAP-325 6μg, live imaging): 93.6%

Substance: myr-RRKHNKHRPEPDSDER [pCAP-221]
- recruitment of mutp53 lower than of WTp53 [3]: 50%-80%

Substance: myr-RRLIVRILKLPNPPER [pCAP-242]
- recruitment of mutp53 lower than of WTp53 [3]: 50%-80%

— PMC4914250, “Cancer therapeutic approach based on conformational stabilization of mutant p53 protein by small peptides” (Oncotarget, 2016)
